From patent publication US7544666B2, “NAP derivatives” (Industrial Technology Research Institute, priority 2005, dated 2009)

Key:
Caco-2 cell = test: Stability in the Caco-2 cell system; type: in vitro ADME, human; conditions: 4-hour incubation in Caco-2 Transwell; relative to initial conc. = 100.00 (500 μM)
In short: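 Compounds at 500 μM initial concentration were incubated 4 h at 37 °C in HBSS alone or on the apical side of Caco-2 monolayers (cultured 18–26 days, TEER over 350 Ω×cm^2). Apical and basolateral levels were quantified by reverse-phase HPLC at 210 nm against the initial concentration.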

[1] = Pharmacokinetics after single subcutaneous dose in rats; type: in vivo; conditions: rat, 1 mg/kg subcutaneous
Procedure: A single dosage of NAP and the NAP derivative of BMEC-NAP0706 were subcutaneously administered to rats respectively, and blood samples were obtained at different time intervals. The blood samples were subjected to LC-MS/MS analysis to measure the concentration of NAP and the NAP derivative. A time-plasma concentration relationship was established and pharmacokinetic parameters were calculated. The procedures are described below.
Long Evans rats with body weight between 220 to 240 g were obtained from the National Laboratory Animal Center, Taiwan and caged in the laboratory animal housing in the Industrial Technology Research Institute, Taiwan. The Breeding procedure follows the “Guide for the Care and Use of Laboratory Animals” established by the Chinese Society of Laboratory Animal Sciences. The rats were kept on an alternating 12-hour light and 12-hour dark schedule with sufficient feed and water until they reached the body weight between 280 to 300 g.
Each rat was weighed before the pharmacokinetic examination to estimate its own dosage. The tested drug dissolved in PBS was formulated to achieve the amount of one dosage between 0.28 to 0.32 mL. Each rat was subcutaneously administered with 1 mg/kg of the tested drug. 0.3 mL of blood samples were collected from the saphenous vein in medial thigh of the rat before and 0.25-, 0.5-, 0.75-, 1-, 2-, 4-, 24-hour after administration. Whole blood was centrifuged under 3500 rpm for 10 min and supernatant (serum) was moved to a clean 1.5 mL eppendorf and stored at −80° C.
Sample pretreatment was as follows: The frozen serum was thawed in an ice bath. One hundred μL of the serum was moved to a clean 1.5 mL eppendorf and 10 μL of internal standard material was added. The mixture was added with 200 μL ACN and mixed again. The sample was centrifuged under 14000 rpm at 4° C. for 10 min, and the supernatant was moved to the other clean eppendorf and dried in a vacuum system at 60° C. for 30 min. The dried sample was dissolved in 900 μL ddH2O. The sample was added to a solid phase extraction column previously activated with methanol and ddH2O. After the sample passed through, the extraction column was washed with ddH2O alone and then ddH2O containing 5% ACN and 0.1% TFA. The sample was dissolved from the extraction column with ACN containing 0.1% TFA and dried under a vacuum system at 60° C. for 1 hour. The dried sample was redissolved with 100 μL of ddH2O containing 50% ACN. The sample was analyzed with HPLC-MS/MS system.
The sample analysis was as described below. 20 μL of the sample was poured into the HPLC-MS/MS system. The solvent system was applied in gradient partitioning: 90% A (H2O/ACN=98/2, 0.1% F.A.) and 10% B (H2O/ACN=20/80, 0.1% F.A.) at 0-3 min; 10% A and 90% B at 3-6.5 min; 90% A and 10% B again at 6.5-15 min. The flow rate was 0.2 mL/min. The column was ZORBAX C18, 5 μm, 2.1×50 mm (Agilent) and the detector was ABI 4000 Q Trap. Each sample was analyzed for 15 min. The results were compared with the standard calibration curve to estimate the concentration of each sample. All data was statistically analyzed with Excel or WinNonlin.

Conc. after 4-hour in Caco-2 cells (Caco-2 cell): 42.49
AUC ([1]; in vivo, sc): 55.8 ng·h/mL
Cmax ([1]; in vivo, sc): 55.5 ng/mL
Tmax ([1]; in vivo, sc): 15 min
half-life ([1]; in vivo, sc, read-out: T½ (converted)): 51 min
TNAP-max [1]: 0.25 h
time required to reach the highest concentration [1]: 0.25 h
Structure (SMILES): CC[C@H](C)[C@H](NC(=O)[C@H](CO)NC(=O)[C@@H](NC(=O)[C@@H]1CCCN1C(=O)[C@H](C)NC(=O)[C@@H](N)CC(N)=O)C(C)C)C(=O)N1CCC[C@H]1C(=O)N[C@@H](CCC(N)=O)C(=O)O [BMEC-NAP, H-NAPVSIPQ-OH, reference compound]
